# ChEMBL document CHEMBL5370625, “Design of Next-Generation DGAT2 Inhibitor PF-07202954 with Longer Predicted Half-Life” (ACS Med Chem Lett, 2023)
# Columns and labels:
# [1] = target: T1, Diacylglycerol O-acyltransferase 2 (Homo sapiens, UniProt Q96PD7)
# T1 sequence (Q96PD7 whole entry): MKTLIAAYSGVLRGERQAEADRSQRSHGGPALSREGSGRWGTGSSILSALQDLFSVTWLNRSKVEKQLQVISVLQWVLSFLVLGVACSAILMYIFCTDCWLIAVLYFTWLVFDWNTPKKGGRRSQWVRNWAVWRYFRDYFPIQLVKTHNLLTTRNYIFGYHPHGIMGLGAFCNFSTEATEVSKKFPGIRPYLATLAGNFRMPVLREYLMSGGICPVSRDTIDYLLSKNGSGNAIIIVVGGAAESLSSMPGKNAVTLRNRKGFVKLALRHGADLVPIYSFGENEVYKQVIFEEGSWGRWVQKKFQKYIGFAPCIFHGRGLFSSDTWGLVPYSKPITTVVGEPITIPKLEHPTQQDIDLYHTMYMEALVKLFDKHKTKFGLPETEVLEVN
# Description: Inhibition of human DGAT2 using 14C decanoyl-CoA as a substrate pre incubated for 2 hrs followed by substrate addition measured after 40 mins by Trilux Microbeta reader analysis
# physchem [2] = assay: physchem
# Description: Dissociation constant, pKa of the compound
# in vitro = conditions: dog, MDCK
# Description: Apparent permeability in MDCKII-LE cells incubated for 1.5 hrs
# physchem [3] = conditions: octanol/aqueous buffer, pH 7.4
# [4] = human, hepatocytes
# Description: Apparent intrinsic clearance in human hepatocytes measured per million cells by LC-MS/MS analysis
# [5] = Volume of distribution at steady state in cynomolgus monkey at 1 mg/kg, iv; format: ADME, organism-based, Macaca fascicularis; conditions: in vivo, read-out: Vdss
# [6] = Oral bioavailability in Wistar Han rat; format: ADME, organism-based; conditions: in vivo
# [7] = Half life of the compound in po dosed cynomolgus monkey; format: ADME, organism-based, Macaca fascicularis; conditions: in vivo
# [8] = Renal clearance in Wistar Han rat at 1 mg/kg, iv; format: ADME, organism-based; conditions: in vivo
# [9] = Half life of the compound in po dosed Wistar Han rat; format: ADME, organism-based; conditions: in vivo
# [10] = Apparent intrinsic clearance in human hepatocytes measured per million cells at 1 uM incubated for 4 hrs by relay method; format: ADME, cell-based, Hepatocyte
# [11] = Renal clearance in cynomolgus monkey plasma at 1 mg/kg, iv; format: ADME, organism-based, Macaca fascicularis
# [12] = Oral bioavailability in cynomolgus monkey; format: ADME, organism-based, Macaca fascicularis; conditions: in vivo
# [13] = Clearance in Wistar Han rat plasma at 1 mg/kg,iv; format: ADME, organism-based
# [14] = Volume of distribution at steady state in Wistar Han rat at 1 mg/kg, iv; format: ADME, organism-based; conditions: in vivo, read-out: Vdss
# [15] = Half life of the compound in Wistar Han rat at 1 mg/kg, iv; format: ADME, organism-based; conditions: in vivo
# [16] = Volume of distribution at steady state in po dosed cynomolgus monkey; format: ADME, organism-based, Macaca fascicularis; conditions: in vivo
# [17] = Half life of the compound in cynomolgus monkey at 1 mg/kg, iv; format: ADME, organism-based, Macaca fascicularis; conditions: in vivo
# [18] = Clearance in po dosed Wistar Han rat; format: ADME, organism-based; conditions: in vivo
# Rattus norvegicus [19] = assay: Hepatoprotective activity in po dosed high sucrose diet induced Sprague-Dawley rat model assessed as reduction in liver triglycerides level measured after 2 to 4 hrs post last dose; format: functional, organism-based; conditions: dose 10-100 mg/kg, time 2-4 hrs
# [20] = Clearance in Beagle dog plasma at 1 mg/kg,iv; format: ADME, organism-based, Canis lupus familiaris
# [21] = Renal clearance in po dosed cynomolgus monkey; format: ADME, organism-based, Macaca fascicularis; conditions: in vivo
# [22] = Volume of distribution at steady state in Beagle dog plasma at 1 mg/kg, iv; format: ADME, organism-based, Canis lupus familiaris; conditions: read-out: Vdss
# [23] = Volume of distribution at steady state in po dosed Wistar Han rat; format: ADME, organism-based; conditions: in vivo
# [24] = target: T2, Diacylglycerol O-acyltransferase 2 (Rattus norvegicus, UniProt Q5FVP8); assay: Inhibition of rat DGAT2 using 14C decanoyl-CoA as a substrate pre incubated for 2 hrs followed by substrate addition measured after 40 mins by Trilux Microbeta reader analysis
# T2 sequence (Q5FVP8 whole entry): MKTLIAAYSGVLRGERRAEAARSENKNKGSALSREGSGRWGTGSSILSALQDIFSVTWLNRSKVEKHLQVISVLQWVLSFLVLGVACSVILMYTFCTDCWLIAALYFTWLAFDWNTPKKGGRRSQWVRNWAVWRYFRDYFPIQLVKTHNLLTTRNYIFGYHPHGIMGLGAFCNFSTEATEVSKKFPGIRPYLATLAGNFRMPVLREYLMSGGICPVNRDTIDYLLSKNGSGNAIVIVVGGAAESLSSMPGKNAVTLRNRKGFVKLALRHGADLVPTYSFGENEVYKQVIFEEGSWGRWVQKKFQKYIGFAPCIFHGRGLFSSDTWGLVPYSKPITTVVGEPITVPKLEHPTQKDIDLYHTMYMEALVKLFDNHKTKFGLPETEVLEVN
# [25] = Renal clearance in po dosed Wistar Han rat; format: ADME, organism-based; conditions: in vivo
# Rattus norvegicus [26] = assay: Hepatoprotective activity in po dosed western diet induced Sprague-Dawley rat model assessed as reduction in plasma triglycerides level administered 7 days starting from day 14 post diet followed by single dose administration on day 8 and measured 2 hrs post last dose; format: functional, organism-based; conditions: dose 3-100 mg/kg, time 8.0 day
# Rattus norvegicus [27] = assay: Hepatoprotective activity in western diet induced Sprague-Dawley rat model assessed as reduction in liver triglycerides level at 100 mg/kg, po administered 7 days starting from day 14 post diet followed by single dose administration on day 8 and measured 2 hrs post last dose relative to control; format: functional; parameters: scale not given: the % may be the effect or the level left; conditions: time 8 day
# Rattus norvegicus [28] = assay: Hepatoprotective activity in western diet induced Sprague-Dawley rat model assessed as reduction in plasma triglycerides level at 100 mg/kg, po administered 7 days starting from day 14 post diet followed by single dose administration on day 8 and measured 2 hrs post last dose relative to control; format: functional; parameters: scale not given: the % may be the effect or the level left; conditions: time 8 day
# [29] = Renal clearance in Beagle dog plasma at 1 mg/kg,iv; format: ADME, organism-based, Canis lupus familiaris
# [30] = Half life of the compound in Beagle dog plasma at 1 mg/kg, iv; format: ADME, organism-based, Canis lupus familiaris
# [31] = target: T3, Diacylglycerol O-acyltransferase 1 (Homo sapiens, UniProt O75907); assay: Inhibition of DGAT1 (unknown origin)
# T3 sequence (O75907 whole entry): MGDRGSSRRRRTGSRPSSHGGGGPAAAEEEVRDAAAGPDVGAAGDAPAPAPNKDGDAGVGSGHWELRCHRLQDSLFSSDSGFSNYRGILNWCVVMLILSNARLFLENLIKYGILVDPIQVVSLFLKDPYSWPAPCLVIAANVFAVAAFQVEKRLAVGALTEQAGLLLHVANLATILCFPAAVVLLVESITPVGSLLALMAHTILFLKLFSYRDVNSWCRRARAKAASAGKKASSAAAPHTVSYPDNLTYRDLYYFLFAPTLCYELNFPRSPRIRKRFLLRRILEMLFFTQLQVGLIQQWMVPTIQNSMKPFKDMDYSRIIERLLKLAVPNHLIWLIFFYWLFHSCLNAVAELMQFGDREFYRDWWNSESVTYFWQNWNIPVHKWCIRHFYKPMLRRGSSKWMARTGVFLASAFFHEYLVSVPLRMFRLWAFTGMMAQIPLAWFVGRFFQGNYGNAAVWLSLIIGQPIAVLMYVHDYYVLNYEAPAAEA
# Rattus norvegicus [32] = assay: Hepatoprotective activity in po dosed high sucrose diet induced Sprague-Dawley rat model assessed as reduction in plasma triglycerides level measured after 2 to 4 hrs post last dose; format: functional, organism-based; conditions: dose 10-100 mg/kg, time 2-4 hrs
# [33] = Clearance in po dosed cynomolgus monkey plasma; format: ADME, organism-based, Macaca fascicularis
# Rattus norvegicus [34] = assay: Hepatoprotective activity in po dosed western diet induced Sprague-Dawley rat model assessed as reduction in liver triglycerides level administered 7 days starting from day 14 post diet followed by single dose administration on day 8 and measured 2 hrs post last dose; format: functional, organism-based; conditions: dose 3-100 mg/kg, time 8.0 day
smiles,measurement,setting,value
CCOc1cccnc1Oc1cncc(-c2ncc(C(=O)N[C@@H]3CNC[C@H](F)C3)cn2)c1 (racemic),IC50,[1],200 nM
same,pKa,physchem [2],6.8
same,Papp at 1.5 h,in vitro,13 ×10⁻⁶ cm/s
same,logD at 1 h,physchem [3],1.7
same,CLH(app),[4],6.6 µL/min
CCOc1cccnc1Oc1cncc(-c2ncc(C(=O)N[C@@H]3CNCC[C@H]3F)cn2)c1,Papp at 1.5 h,in vitro,8.8 ×10⁻⁶ cm/s
same,logD at 1 h,physchem [3],1.4
same,CLH(app),[4],< 1.9 µL/min
CCOc1cccnc1Oc1cncc(-c2ncc(C(=O)N[C@H]3CCNC3)cn2)c1,IC50,[1],500 nM
same,pKa,physchem [2],9.2
same,Papp at 1.5 h,in vitro,0.39 ×10⁻⁶ cm/s
same,logD at 1 h,physchem [3],-0.9
same,CLH(app),[4],< 1.8 µL/min
CCOc1cccnc1Oc1cncc(-c2ncc(C(=O)N[C@H]3CCOC3)cn2)c1 [PF-06865571],Papp at 1.5 h,in vitro,19 ×10⁻⁶ cm/s
same,Vd,[5],0.71 L/kg
same,bioavailability,[6],31%
same,half-life,[7],3.9 h
same,logD at 1 h,physchem [3],1.9
same,CL renal,[8],< 0.1 mL/min/kg
same,half-life,[9],1.4 h
same,CLH(app),[10],3.9 µL/min
same,CL renal,[11],< 0.1 mL/min/kg
same,bioavailability,[12],48%
CCOc1cccnc1Oc1cncc(-c2ncc(C(=O)N[C@H]3CC[C@@H](C(F)(F)F)NC3)cn2)c1 (relative stereo),IC50,[1],4.4 nM
same,pKa,physchem [2],4.5
same,Papp at 1.5 h,in vitro,30 ×10⁻⁶ cm/s
same,logD at 1 h,physchem [3],2.8
same,CLH(app),[4],38 µL/min
CCOc1cccnc1Oc1cncc(-c2ncc(C(=O)N[C@H]3CNC[C@H](F)C3)cn2)c1,Papp at 1.5 h,in vitro,2.5 ×10⁻⁶ cm/s
same,logD at 1 h,physchem [3],1.3
same,CLH(app),[4],< 1.9 µL/min
CCOc1cccnc1Oc1cncc(-c2ncc(C(=O)N[C@@H]3CNCCC3(F)F)cn2)c1,pKa,physchem [2],6.4
same,Papp at 1.5 h,in vitro,18 ×10⁻⁶ cm/s
same,logD at 1 h,physchem [3],1.8
same,CLH(app),[4],4.7 µL/min
CCOc1cccnc1Oc1cncc(-c2ncc(C(=O)N[C@@H]3CCNC3)cn2)c1,IC50,[1],410 nM
same,pKa,physchem [2],9.2
same,Papp at 1.5 h,in vitro,0.68 ×10⁻⁶ cm/s
same,bioavailability,[6],< 1%
same,logD at 1 h,physchem [3],-0.15
same,clearance,[13],51 mL/min/kg
same,CL renal,[8],5.2 mL/min/kg
same,Vd,[14],4.1 L/kg
same,half-life,[15],1.9 h
same,CLH(app),[4],< 3 µL/min
CCOc1cccnc1Oc1cncc(-c2ncc(C(=O)NC3CCNCC3)cn2)c1,IC50,[1],22000 nM
same,pKa,physchem [2],10.1
same,Papp at 1.5 h,in vitro,1.3 ×10⁻⁶ cm/s
same,logD at 1 h,physchem [3],-0.19
CCOc1cccnc1Oc1cncc(-c2ncc(C(=O)N[C@@H]3CNCC(F)(F)C3)cn2)c1,Papp at 1.5 h,in vitro,14 ×10⁻⁶ cm/s
same,logD at 1 h,physchem [3],2.3
same,CLH(app),[4],9.3 µL/min
CCOc1cccnc1Oc1cncc(-c2ncc(C(=O)N[C@@H]3CNCC[C@@H]3F)cn2)c1,IC50,[1],16 nM
same,pKa,physchem [2],8
same,Papp at 1.5 h,in vitro,4.7 ×10⁻⁶ cm/s
same,logD at 1 h,physchem [3],0.96
same,CLH(app),[4],< 1.9 µL/min
CCOc1cccnc1Oc1cncc(-c2ncc(C(=O)N[C@@H]3CNC[C@@H](F)C3)cn2)c1,Vdss,[16],1.6 L/kg
same,Papp at 1.5 h,in vitro,2.9 ×10⁻⁶ cm/s
same,half-life,[17],1.4 h
same,bioavailability,[6],12%
same,CL/F,[18],64 mL/min/kg
same,Activity,Rattus norvegicus [19],Dose-Dependent Effect
same,half-life,[7],6.5 h
same,clearance,[20],22 mL/min/kg
same,CL renal,[21],0.29 mL/min/kg
same,logD at 1 h,physchem [3],1.4
same,Vd,[22],2.1 L/kg
same,Vdss,[23],2.7 L/kg
same,IC50,[24],17 nM
same,CL renal,[25],7.5 mL/min/kg
same,Activity,Rattus norvegicus [26],Dose-Dependent Effect
same,CLH(app),[10],0.99 µL/min
same,half-life,[15],0.9 h
same,Activity,Rattus norvegicus [27],48%
same,Activity,Rattus norvegicus [28],71%
same,CL renal,[29],5.5 mL/min/kg
same,half-life,[30],1.5 h
same,bioavailability,[12],21%
same,IC50,[31],> 50000 nM
same,Activity,Rattus norvegicus [32],Dose-Dependent Effect
same,CL/F,[33],17 mL/min/kg
same,Activity,Rattus norvegicus [34],Dose-Dependent Effect
